From patent US9408899B2, “Vaccines against Toxoplasma gondii” (priority 2010, dated 2016)
Where two headings read alike, the source gives them in different places. No end group written: not given here.

Tests used:
[1] = system: splenocytes from HLA-A*1101 transgenic mice; experiment: IFN-γ ELISpot with splenocytes of immunized HLA-A*1101 transgenic mice; format: in vivo; details: for IFN-γ production by splenocytes of lipopeptide-immunized mice: HLA-A*1101 mice immunized twice at three week intervals with lipopeptide in PBS, stimulated with peptides
Description: As controls, mice were injected with PBS. Mice were vaccinated twice at 3-week intervals.
Murine splenocytes: Mice were euthanized 7 to 14 days after immunization. Spleens were harvested, pressed through a 70 μm screen to form a single-cell suspension, and depleted of erythrocytes with AKC lysis buffer (160 mM NH4Cl, 10 mM KHCO3, 100 μM EDTA).
5×10^5 splenocytes were plated per well.
Both murine and human cells were plated in at least 3 replicate wells for each condition. Results were expressed as number of spot forming cells (SFCs) per 10^6 PBMCs or per 10^6 murine splenocytes.
All mouse experiments were repeated at least twice, with 4-5 mice for each group.

HLA-A03 supertype = experiment: MHC-peptide binding assay, number of supertype alleles bound; design: species or system human; details: of six HLA-A03 supertype alleles tested
Text: (§1) Assays were as described in Sidney, J., et al. Immunome Res 4, 2 (2008).

HLA-A*1101 = HLA-A*1101 (Homo sapiens, UniProt P04439, A114D/D185E/E176A/F33Y/L180Q/S129P/T187R); experiment: MHC-peptide binding assay; details: unit inferred
Text: Under conditions used, where [radiolabeled probe]<[MHC] and IC50≧[MHC], measured IC50 values are reasonable approximations of true Kd values.

HLA-A*0301 = HLA-A*0301 (Homo sapiens, UniProt P04439); experiment: MHC-peptide binding assay; details: MHC binding affinity; IC50 approximates Kd; unit inferred
Text: as §1

HLA-A*3001 = HLA-A*3001 (Homo sapiens, UniProt P04439, D140H/D185E/E176W/F33S/G80R/H175R/K168Q/R138E/R41S); experiment: MHC-peptide binding assay; details: MHC binding affinity; IC50 approximates Kd; unit inferred
Text: as §1

HLA-A*3301 = HLA-A*3301 (Homo sapiens, UniProt P04439, A270S/D185E/E176V/E277Q/E87N/F33T/G231S/H175R/I121M/I218V/I322F/K168Q/K210R/L300P/L318F/M331R/P217A/Q86R/Q94H/R138Q/T323A/T345S/T97I/V358M/Y195H); experiment: MHC-peptide binding assay; details: MHC binding affinity; IC50 approximates Kd; unit inferred
Text: as §1

HLA-A*6801 = HLA-A*6801 (Homo sapiens, UniProt P04439, A269V/D185E/E176V/E277Q/E87N/F33Y/G231S/I121M/I166T/I218V/L180W/L300P/L318F/N151K/P208A/P217A/Q86R/R169H/T345S); experiment: MHC-peptide binding assay; details: MHC binding affinity; IC50 approximates Kd; unit inferred
Text: as §1

HLA-A*3101 = HLA-A*3101 (Homo sapiens, UniProt P04439, A270S/D185E/E176V/E277Q/F33T/G231S/G80R/H175R/I121M/I218V/I322F/K168Q/L300P/L318F/M331R/P217A/Q94H/R138Q/T323A/T345S/T97I/V358M); experiment: MHC-peptide binding assay; details: MHC binding affinity; IC50 approximates Kd; unit inferred
Text: as §1

[2] = system: Splenic T cells from HLA-A*0201 mice; experiment: IFN-γ ELISpot with splenocytes of immunized HLA-A*0201 transgenic mice; format: in vivo; details: for IFN-γ production from T cells of immunized mice: HLA-A*0201 mice immunized with pooled peptides plus PADRE; for IFN-γ production in vitro by T cells from immunized mice: HLA-A*0201 mice immunized with pooled peptides alone, stimulated with the individual peptide
Description: Eleven to fourteen days post immuniztion, spleen cells were isolated and exposed to each individual peptide.
5×10^5 splenocytes were plated per well. All antibodies and reagents used for ELISpot assays were obtained from Mabtech (Cincinnati, Ohio). Cells were plated in at least 3 replicate wells for each condition. Results were expressed as number of spot forming cells (SFCs) per 10^6 PBMCs or per 10^6 murine splenocytes.
Mice were boosted once at a 2-week interval.
Three to five mice from each group were euthanized 7 to 14 days after the last immunization. Spleens were harvested, pressed through a 70 μm screen to form a single-cell suspension, and depleted of erythrocytes with ASK lysis buffer (160 mM NH4Cl, 10 mM KHCO3, 100 μM EDTA).
Each ELISpot experiment was replicated a minimum of twice. P values of ≦0.05 were considered significant.

HLA-A*0201 = HLA-A*0201 (Homo sapiens, UniProt P04439, D140Y/D185E/D98H/E176V/E277Q/G131W/G231S/I119V/I121R/I166T/I218V/L300P/L318F/N151K/N90K/P208A/P217A/Q86G/Q94H/R138H/R169H/T345S); experiment: MHC-peptide binding assay (inhibition of binding of radiolabeled standard peptide); details: for IC50: MHC binding assay, measured IC50 approximates Kd, no unit in table, text b40 speaks of nM, read-out: Affinity (c) HLA-A*0201
Description: (§2) Briefly, 1-10 nM of radiolabeled peptides were co-incubated with 1 M-1 nM purified MHC and 1-3 human β2-microglobulin. After 2 days, binding of radiolabeled peptide to corresponding MHC Class I molecule was determined by capturing MHC-peptide complexes on Greiner GREINER® Lumitrac 600 microplates coated with W6/32 antibody and measuring bound counts per minutes using a Topcount microscintillation counter. […] Under conditions used, where [radiolabeled probe]<[MHC] and IC50≧[MHC], measured IC50 values are reasonable approximations of true Kd values.

HLA-A*0203 = HLA-A*0203 (Homo sapiens, UniProt P04439, A173T/D140Y/D185E/D98H/E277Q/G131W/G231S/I119V/I121R/I166T/I218V/L180W/L300P/L318F/N151K/N90K/P208A/P217A/Q86G/Q94H/R138H/R169H/T345S); experiment: MHC-peptide binding assay
Description: as §2

HLA-A*0202 = HLA-A*0202 (Homo sapiens, UniProt P04439, D140Y/D185E/D98H/E176V/E277Q/G131W/G231S/I119L/I121R/I166T/I218V/L180W/L300P/L318F/N151K/N90K/P208A/P217A/Q67R/Q86G/Q94H/R138H/R169H/T345S); experiment: biochemical
Description: as §2

[3] = system: splenocytes from HLA-B*0702 transgenic mice; details: HF10 administered as lipopeptide with PADRE or with MLA, earlier work; cited from earlier work
[4] = Table 3, MHC binding assay, read-out: Affinity^b HLA-A*1101

CC(C)C[C@H](NC(=O)[C@H](CC(C)C)NC(=O)[C@H](CC(=O)O)NC(=O)[C@H](CCCCN)NC(=O)[C@H](Cc1ccccc1)NC(=O)[C@H](CO)NC(=O)[C@@H](N)CCCNC(=N)N)C(=O)N[C@@H](CCCCN)C(=O)N[C@@H](CCCCN)C(=O)O
IFN-γ production on stimulation of spleen cells with the peptide ([1]; HLA-A*1101 mice immunized with a mixture of peptides and adjuvants): not present

AVVSLLRLLK
SUPERTYPE ALLELES BOUND (HLA-A03 supertype): 4
IC50 (HLA-A*1101; [4]): 34 nM
IC50 (HLA-A*0301): 17 nM
IC50 (HLA-A*3001): 8.1 nM
IC50 (HLA-A*3301): 1100 nM
IC50 (HLA-A*6801): 94 nM
IC50 (HLA-A*3101): 1300 nM

FLLGLLVHV [SAG3375-383]
IFN-γ production from T cells of immunized mice [2]: significant IFN-γ production
IC50 (HLA-A*0201): 6.4 nM

FLSLSLLVI [SAG2C38-46]
IFN-γ production in vitro by T cells from immunized mice [2]: significant IFN-γ production
IFN-γ production from T cells of immunized mice [2]: significant IFN-γ production
Kd (HLA-A*0201): > 50 nM
IC50 (HLA-A*0201): 736 nM
Kd (HLA-A*0203): 50 to 500 nM
Kd (HLA-A*0202): 50 to 500 nM

FLTDYIPGA [SAG3136-144]
IC50 (HLA-A*0201): 0.7 nM

FMIAFISCFA [SAG2D180-189]
IFN-γ production in vitro by T cells from immunized mice [2]: significant IFN-γ production
IFN-γ production from T cells of immunized mice [2]: significant IFN-γ production
IC50 (HLA-A*0201): 32 nM

FMIVSISLV [SAG2X351-359]
IFN-γ production from T cells of immunized mice [2]: significant IFN-γ production
IC50 (HLA-A*0201): 16 nM

FVIFACNFV [SAG2X44-52]
IFN-γ production from T cells of immunized mice [2]: significant IFN-γ production
IC50 (HLA-A*0201): 34 nM

GLAAAVVAV [SPA82-90]
IC50 (HLA-A*0201): 9.6 nM

HPGSVNEFDF (listed as Toxoplasma gondii) [HF10]
immunogenic in HLA-B07 transgenic mice [3]: not immunogenic

ITMGSLFFV [SPA12-20]
IC50 (HLA-A*0201): 0.16 nM

LpAM9: lipopeptide: palmitic acid-bearing lysine, PADRE, then AMLTAFFLR (GRA6164-172)
IFN-γ production by splenocytes of lipopeptide-immunized mice [1]: higher IFN-γ production than LpRS9

LpKS9: lipopeptide: palmitic acid-bearing lysine, PADRE, then KSFKDILPK (SAG1224-232)
IFN-γ production by splenocytes of lipopeptide-immunized mice [1]: higher IFN-γ production than LpRS9

SSAYVFSVK
SUPERTYPE ALLELES BOUND (HLA-A03 supertype): 5
IC50 (HLA-A*1101; [4]): 10 nM
IC50 (HLA-A*0301): 12 nM
IC50 (HLA-A*3001): 1830 nM
IC50 (HLA-A*3301): 181 nM
IC50 (HLA-A*6801): 2.1 nM
IC50 (HLA-A*3101): 97 nM

STFWPCLLR
SUPERTYPE ALLELES BOUND (HLA-A03 supertype): 5
IC50 (HLA-A*1101; MHC binding affinity, Table 2b, IC50 approximates Kd, read-out: HLA-A*1101): 10 nM
IC50 (HLA-A*0301): 22 nM
IC50 (HLA-A*3001): 1270 nM
IC50 (HLA-A*3301): 3.4 nM
IC50 (HLA-A*6801): 0.97 nM
IC50 (HLA-A*3101): 1.2 nM
